Assay results: publication PMC8131363 (Scientific Reports, 2021)

How the values were obtained:
[1] = tested on: human sensory panel; assay: human sensory panel triangle test; format: in vivo; conditions: humans, CaCl2 8 mM, MgCl2 8 mM; for % correct, triangle test in umami mix: GSH 0.65 mM in MSG/IMP/NaCl mix vs mix blank; for % correct, triangle test in water: GSH 0.65 mM in mineral water vs blank
Description: All solutions were prepared using a commercial mineral water, Highland Spring (Highland Spring group, Blackford, UK) previously tested on our taste sensory panel and found to have the lowest level of inherent taste, thus being the least disruptive to taste tests. All taste-active substances were food-grade or of the highest available purity.
For tests with CaCl2, MgCl2, and GSH, each compound was dissolved directly in water, at 8 mM, 8 mM and 0.65 mM, respectively. Each compound was also tested in a mixture of umami and salty compounds, previously described in kokumi sensory evaluation, composed of 0.02% MSG, 0.02% IMP and 0.07% NaCl.
The human sensory panel experimental protocols were approved by the Waltham Animal Welfare and Ethical Review Board and all methods were carried-out in accordance with all local regulations and guidelines. Informed consent was obtained from all subjects, and all participants were over the legal age of consent. All assessors used for the tests were validated following the process outlined in ISO 8586:2012(E). Briefly, all assessors were evaluated on their capacity to recognise tastants from blank solutions and successfully identify the basic taste modalities presented. The panellists were also assessed on their ability to correctly rank solutions of a tastant in ascending concentration order. The measures for successful validation of panellists were applied to all who completed the assessment.
For the kokumi tastant tests, six tests in all were completed, two with each CaSR agonist chosen CaCl2, MgCl2, or GSH. The number of participating panellists for each test varied between twenty-four and twenty-five. […] No replicate evaluations were done by the same assessor. For each compound, the assessors were presented with […] separate forced choice triangle tests. In the first test, the compound was dissolved in spring water and compared to a blank of pure spring water, in the second the compound was dissolved into the previously described umami mix[8] and compared to a blank of the umami mix. In each separate test, the panellists were presented with the samples in a randomised order to eliminate potential bias. Panellists were presented either two blanks and a sample or two samples and a blank and asked to identify the sample that was different in the triad. Panellists were asked to give a brief description of why the sample chosen was different. If they were unable to detect a difference, the assessors were instructed to choose a sample at random and specify in the description that they were unable to make a difference between the samples[61].
The data was analysed for statistical significance using a standard methodology described in[61]. For this, the number of correct answers were compared to the number of assessors in each test, at the α-risk level chosen for the test. […] As determined by a one tailed test, the minimum number of panellists required to successfully determine difference between samples was thirteen for the chosen α value.
Initially, a contingency table of the number of correct answers and the number of wrong answers was created for each test. Then, Pearson’s chi-square test was then applied to the resulting table, with the probability of a correct answer at random being 1/ 3, while the probability of a wrong answer was 2/ 3.

[2] = tested on: domestic short hair cats; assay: two-bottle choice test, cat water panel; format: in vivo, Felis catus; conditions: for intake of compound solution compared to water: n = 24, 18 h, CaCl2 at 8 mM; for preference for umami amino acid mix with compound vs amino acid mix alone: n = 24, mix 15 mM L-His, 15 mM L-Trp, 15 mM L-Phe
Description: Healthy neutered adult domestic short hair cats (Felis catus) formed the panel for all the choice tests described here (n = 24). […] All the cats taking part in the panel were individually fed dry adult cat food twice per day to their individual Maintenance Energy Requirements (MER). On test days, the cats were housed during 18 h overnight in purpose-built, behaviourally-enriched lodges. During the 18 h exposure, the cats only had access to the water solutions in the two-bottle testing apparatus, however they had free access to drinking water for the rest of the day when they were housed in a social group within an environmentally enriched room. All accommodation complied with the Code of Practice for Animal (Scientific Procedures) Act 1986. All solutions were made with deionised water (Purite, UK). All taste-active substances were food-grade or of the highest available purity. In some cases, salts were purchased instead of the pure compound due to solubility, stability or availability reasons. The in vivo testing was a two-bottle choice test and the methodology was adapted from[23]. All animal studies were in alignment with the Mars Animal Research Policy (Mars.com). These studies follow the 3Rs approach to experimentation with animals in scientific research[59] and were approved by the Waltham Animal Welfare and Ethical Review Board, and all the methods were carried-out in accordance with local guidelines and regulations, including the ARRIVE guidelines. […] The drinkers contained the test solution or the control solution, and the position of the drinkers presented to the cats was changed every day to control for any side bias, and each solution was offered twice to each cat. The cats were also offered at the same time as the water solutions, 50% of their daily food allowance. After 30 min. the food was removed and the cats were left in their individual lodges overnight, with access to the drinkers for 18 h. The next day the drinkers were weighed, and the remaining quantities were recorded as refused amounts. Total intakes were calculated using the difference of the offered and refused amounts. A correction for evaporation and any solution spillage was also performed on each data point. Using a bespoke statistical analysis toolkit, based on R software (R Foundation, Vienna, Austria), a mixed model analysis was performed on the difference in intake (g) between water solutions containing the different taste compound, including cat (random) as a factor and weighting by grouped cat specific variability. This was used to test the mean intake difference versus 0, i.e. no difference, at a 5% level. The mean difference in intake was reported with a 95% confidence interval. All individual tests were then combined into a single model and the difference between the tastant pairs (i.e. both conditions containing the kokumi tastant in water vs. in the umami amino acid mix) were directly compared to measure the impact of the compound on the intake of either water or the umami mix. Any data errors (e.g. following manual error such as solution spillage, overflow) were removed from the final data set for analysis.

Row | Structure (SMILES) | % correct, triangle test in umami mix [1] [%] | % correct, triangle test in water [1] [%] | intake of compound solution compared to water [2] | preference for umami amino acid mix with compound vs amino acid mix alone [2]
1 | [Ca+2].[Cl-].[Cl-] [Ca^2+, CaCl2] | 36 | 56 | no significant difference | significant preference
2 | N[C@@H](CCC(=O)N[C@@H](CS)C(=O)NCC(=O)O)C(=O)O [Glutathione] | 58.3 | 37.5 | significantly lower acceptance | no statistically significant difference
3 | [Cl-].[Cl-].[Mg+2] [Mg^2+, MgCl2] | 50 | 50 | significantly lower acceptance | significantly rejected
